Test results published in paper PMC9558423 (Molecular nutrition & food research, 2020).
Counter-ions that a name gives are not always drawn. Like-named read-outs stand apart in the source and are kept apart here. Marks after values point to notes of the source that are not given here.

Key:
[1] = for Qualitative Tmax (blood collection with greatest plasma level): blood every 6h, np = no peak; for Plasma AUC: plasma 0–48h, trapezoidal; for Cmax / AUC / Tmax: plasma
[2] = for Qualitative Tmax (urine collection with greatest excretion): 12h urine collections, np = no peak; for Cmax (nmol excreted) / Tmax: urine; for Cmax (nmol excreted): mean ± SD; for Time of maximal urinary excretion after dosing: as stated in text/figure legend, doses not separated; for Tmax: female, Sprague Dawley, rat, po
[3] = rat, in vivo, 350 mg/kg
[4] = High dose (1000 mg/kg bw), mean ± SD
[5] = Medium dose (350 mg/kg bw), mean ± SD
[6] = Low dose (75 mg/kg bw), mean ± SD
[7] = female, Sprague Dawley, rat, po, 75 mg/kg
[8] = female, Sprague Dawley, rat, po, 350 mg/kg
[9] = female, Sprague Dawley, rat, po, 1000 mg/kg

Qualitative Tmax (blood collection with greatest plasma level) ([1]; High dose (1000 mg/kg bw)) [h]	Plasma AUC [1, 4]	Cmax [1, 4] [nM]	Qualitative Tmax (blood collection with greatest plasma level) ([1]; Medium dose (350 mg/kg bw)) [h]	Plasma AUC [1, 5]	Cmax [1, 5] [nM]	Qualitative Tmax (urine collection with greatest excretion) ([2]; High dose (1000 mg/kg bw)) [h]	Cmax (nmol excreted) ([2]; High dose (1000 mg/kg bw))	Qualitative Tmax (urine collection with greatest excretion) ([2]; Low dose (75 mg/kg bw))	Cmax (nmol excreted) ([2]; Low dose (75 mg/kg bw))	Qualitative Tmax (urine collection with greatest excretion) ([2]; Medium dose (350 mg/kg bw)) [h]	Cmax (nmol excreted) ([2]; Medium dose (350 mg/kg bw))	Qualitative Tmax (blood collection with greatest plasma level) ([1]; Low dose (75 mg/kg bw))	Cmax [1, 6]	Tmax ([2]; 350 mg/kg) [h]	Tmax ([2]; 1000 mg/kg) [h]	Molecule	further results
12	8.00 ± 2.22 ^x uM*h	507 ± 107	12	2.46 ± 0.95 ^w uM*h	161 ± 92	12 to 24	275 ± 34	0 to 12 h	25.4 ± 6.9 nmol excreted	0 to 12	177 ± 24	–	–	–	–	O=C(O)CCc1cccc(O)c1 [3-OH-PPA, 3-hydroxyphenylpropionic acid]	–
–	–	–	–	–	–	–	–	–	–	–	–	–	–	–	–	COc1ccc(-c2oc3cc(O)cc(O)c3c(=O)c2O)cc1O [4-OMe-quercetin, 4-methoxyquercetin]	Qualitative Tmax (urine collection with greatest excretion) [3]: 0 to 12 h
–	–	–	–	–	–	–	598 ± 146	np	np	–	700 ± 78	np	np	12 to 24	12 to 24	O=C(O)CNC(=O)c1ccccc1 [Hippuric acid, hippuric acid]	AUC [1, 7]: 25.8 ± 3.08 µM·h; AUC [1, 8]: 47.7 ± 5.13 µM·h; Cmax [1, 8]: 1540 ± 510 nM; Tmax [1, 8]: 12 h; AUC [1, 9]: 74.3 ± 7.54 µM·h; Cmax [1, 9]: 2060 ± 806 nM; Tmax [1, 9]: 24 to 36 h; Time of maximal urinary excretion after dosing [2]: 12 to 24 h; Amount excreted in urine, medium vs high dose ([2]; medium (350) vs high (1000 mg/kg bw) dose): no difference
–	–	–	–	–	–	–	1.83 ± 0.28	np	np	–	0.72 ± 0.14	np	np	0 to 12	0 to 12	O=C(O)[C@H]1O[C@@H](Oc2c(-c3ccc(O)c(O)c3)oc3cc(O)cc(O)c3c2=O)[C@H](O)[C@@H](O)[C@@H]1O [Quercetin glucuronide, quercetin-3-O-glucuronide]	AUC [1, 7]: 0.32 ± 0.01 µM·h; AUC [1, 8]: 0.34 ± 0.05 µM·h; Cmax [1, 8]: 8 ± 2 nM; Tmax [1, 8]: 6 h; AUC [1, 9]: 0.57 ± 0.14 µM·h; Cmax [1, 9]: 23 ± 5 nM; Tmax [1, 9]: 6 h
–	trace	–	–	–	–	–	35.1 ± 6.0	–	1.03 ± 0.30 nmol excreted	–	12.2 ± 3.0	–	–	0 to 12	0 to 12	COc1cc(C(=O)O)cc(OC)c1O [Syringic acid, syringic acid]	Time of maximal urinary excretion after dosing [2]: ≤ 12 h; Tmax ([2]; 75 mg/kg): 0 to 12 h
6	0.92 ± 0.20 ^y uM*h	84 ± 20	6	0.55 ± 0.11 ^x uM*h	21 ± 8	0 to 12	379 ± 134	np	np	0 to 12	261 ± 50	np	np	–	–	Caffeic acid glucuronide	Plasma AUC [1, 6]: 0.36 ± 0.06 ^w uM*h
–	–	–	–	–	–	0 to 12	3.49 ± 0.46	np	np	0 to 12	0.92 ± 0.24	–	–	–	–	petunidin glucuronide	–

Molecule	Qualitative Tmax (blood collection with greatest plasma level) ([1]; High dose (1000 mg/kg bw)) [h]	Plasma AUC [1, 4]	Cmax [1, 4] [nM]	Qualitative Tmax (blood collection with greatest plasma level) ([1]; Medium dose (350 mg/kg bw)) [h]	Plasma AUC [1, 5]	Cmax [1, 5] [nM]	Qualitative Tmax (urine collection with greatest excretion) ([2]; High dose (1000 mg/kg bw)) [h]	Cmax (nmol excreted) ([2]; High dose (1000 mg/kg bw))	Qualitative Tmax (urine collection with greatest excretion) ([2]; Low dose (75 mg/kg bw))	Cmax (nmol excreted) ([2]; Low dose (75 mg/kg bw))	Qualitative Tmax (urine collection with greatest excretion) ([2]; Medium dose (350 mg/kg bw)) [h]	Cmax (nmol excreted) ([2]; Medium dose (350 mg/kg bw))	Qualitative Tmax (blood collection with greatest plasma level) ([1]; Low dose (75 mg/kg bw))	Cmax [1, 6]	Tmax ([2]; 350 mg/kg) [h]	Tmax ([2]; 1000 mg/kg) [h]	further results
COc1cc(/C=C/C(=O)O)ccc1OS(=O)(=O)O [Ferulic acid sulfate]	6	9.12 ± 2.89 ^x uM*h	825 ± 317	6	6.33 ± 3.04 ^x uM*h	262 ± 169	0 to 12	18.7 ± 14.9	np	np	0 to 12	7.41 ± 3.52	np	np	–	–	Plasma AUC [1, 6]: 6.16 ± 1.50 ^x uM*h
COc1cc(/C=C/C(=O)O)ccc1O [Ferulic acid, ferulic acid]	–	trace	–	–	–	–	0 to 24	–	np	np	0 to 24	11.7 ± 3.0	–	–	–	–	–
